Data reported in US20260028423A1, “PREDICTION OF AN INCREASE OF DPP3 IN A PATIENT WITH SEPTIC SHOCK” (4TEEN4 Pharmaceuticals GmbH, priority 2022, published 2026).
“Also recorded” adds a separate entry of the source. Where two headings read alike, the source gives them in different places.

Assays:
[1] = target: T1, native DPP3 from blood cells (Homo sapiens, UniProt Q9NY33); assay: DPP3 inhibition curve (FIG. 7); assay type: biochemical; details: against 15 ng/ml DPP3
T1 construct: from tissue; host or cells: blood cells
T1 sequence (Q9NY33 1-737): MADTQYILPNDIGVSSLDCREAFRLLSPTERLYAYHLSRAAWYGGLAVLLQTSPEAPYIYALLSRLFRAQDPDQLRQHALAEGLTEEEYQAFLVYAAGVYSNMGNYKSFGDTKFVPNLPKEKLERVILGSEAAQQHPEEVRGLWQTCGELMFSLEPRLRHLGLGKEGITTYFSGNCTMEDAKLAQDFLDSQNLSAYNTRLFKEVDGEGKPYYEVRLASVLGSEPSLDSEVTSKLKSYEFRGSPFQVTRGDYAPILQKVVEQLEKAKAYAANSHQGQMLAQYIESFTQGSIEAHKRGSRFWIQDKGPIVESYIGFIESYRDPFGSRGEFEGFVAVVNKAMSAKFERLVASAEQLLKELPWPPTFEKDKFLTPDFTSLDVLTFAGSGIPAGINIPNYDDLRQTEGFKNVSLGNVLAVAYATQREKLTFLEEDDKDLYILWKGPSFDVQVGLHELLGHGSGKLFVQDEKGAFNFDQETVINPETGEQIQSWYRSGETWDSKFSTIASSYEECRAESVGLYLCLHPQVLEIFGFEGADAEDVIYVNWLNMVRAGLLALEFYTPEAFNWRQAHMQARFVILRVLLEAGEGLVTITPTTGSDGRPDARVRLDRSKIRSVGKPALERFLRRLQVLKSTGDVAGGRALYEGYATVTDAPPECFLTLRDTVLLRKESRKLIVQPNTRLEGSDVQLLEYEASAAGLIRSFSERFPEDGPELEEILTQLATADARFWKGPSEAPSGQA

[2] = target: T2, Recombinant GST-tagged hDPP3 (Homo sapiens, UniProt Q9NY33); assay: hDPP3 binding assay (labelled antibody, immobilized antigen, RLU); details: immobilized GST-hDPP3 1 μg/well
T2 construct: purchased USBio (United States Biological, Salem, MA, USA)
T2 sequence (Q9NY33 1-737): T1 sequence (Q9NY33 1-737)
Procedure: To analyze the capability of DPP3/immunization peptide binding by the different antibodies and antibody clones a binding assay was performed:
Solid phase: Recombinant GST-tagged hDPP3 (SEQ ID NO. 36) or a DPP3 peptide (immunization peptide, SEQ ID NO. 37) was immobilized onto a high binding microtiter plate surface (96-Well polystyrene microplates, Greiner Bio-One international AG, Austria, 1 μg/well in coupling buffer [50 mM Tris, 100 mM NaCl, pH7,8], 1 h at RT). After blocking with 5% bovine serum albumin, the microplates were vacuum dried.
Labelling procedure (tracer): 100 μg (100 μl) of the different antiDPP3 antibodies (detection antibody, 1 mg/ml in PBS, pH 7.4) were mixed with 10 μl acridinium NHS-ester (1 mg/ml in acetonitrile, InVent GmbH, Germany; EP 0 353 971) and incubated for 30 min at room temperature. […] The final concentration was approx. 5-7*10^6 relative light units (RLU) of labelled compound (approx. 20 ng labelled antibody) per 200 μl. acridinium ester chemiluminescence was measured by using a Centro LB 960 luminometer (Berthold Technologies GmbH & Co. KG).
hDPP3 binding assay: the plates were filled with 200 μl of labelled and diluted detection antibody (tracer) and incubated for 2-4 h at 2-8° C. […] Well-bound chemiluminescence was measured by using the Centro LB 960 luminometer (Berthold Technologies GmbH & Co. KG).

[3] = target: T3, DPP3 (Homo sapiens, UniProt Q9NY33); assay: Western Blot analysis of binding specificity in blood cell lysate; details: AK1967 as primary antibody
T3 construct: from tissue; host or cells: lysate of blood cells from human EDTA-blood
T3 sequence (Q9NY33 1-737): T1 sequence (Q9NY33 1-737)
Procedure: Blood cells from human EDTA-blood were washed (3× in PBS), diluted in PBS and lysed by repeated freeze-thaw-cycles. […] Dilutions of blood cell lysate (1:40, 1:80, 1:160 and 1:320) and of purified recombinant human His-DPP3 (31.25-500 ng/ml) were subjected to SDS-PAGE and Western Blot. The blots were incubated in 1.) blocking buffer (1×PBS-T with 5% skim milk powder), 2.) primary antibody solution (AK1967 1:2.000 in blocking buffer) and 3.) HRP labelled secondary antibody (goat anti mouse IgG, 1:1.000 in blocking buffer). Bound secondary antibody was detected using the Amersham ECL Western Blotting Detection Reagent and the Amersham Imager 600 UV (both from GE Healthcare).

[4] = tested on: isoproterenol-induced heart failure mice; assay: Isoproterenol-induced heart failure in mice; assay type: in vivo, mouse; details: 10 mg/kg i.v.; within the first hour after administration
Procedure: Acute heart failure was induced in male mice at 3 months of age by two daily subcutaneous injections of 300 mg/kg of Isoproterenol, a non-selective β-adrenergic agonist (DL-Isoproterenol hydrochloride, Sigma Chemical Co) (ISO) for two days (Vergaro et al, 2016). The ISO dilution was performed in NaCl 0.9%. Isoproterenol-treated mice were randomly assigned to two groups (Table 10) and PBS or Procizumab (10 mg/kg) were injected intravenously after baseline echocardiography (Gao et al., 2011) and renal resistive index measurements (Lubas et al., 2014, Dewitte et al, 2012) were performed at day 3 (FIGS. 11 A and B). Cardiac function was assessed by echocardiography (Gao et al., 2011) and by the renal resistive index (Lubas et al., 2014, Dewitte et al, 2012) at 1 hour, 6 hours and 24 hours (FIGS. 11 A and B). The group of mice that was injected with vehicle (PBS) instead of isoproterenol was subjected to no further pharmacological treatment and served as the control group (Table 10).

[5] = target: T2, Recombinant GST-tagged hDPP3; assay: hDPP3 inhibition analysis (DPP3 activity assay, Arg-Arg-βNA); assay type: biochemical; details: 25 ng/ml GST-DPP3, 10 μg antibody
Procedure: To analyze the capability of DPP3 inhibition by the different antibodies and antibody clones a DPP3 activity assay with known procedure (Jones et al., 1982) was performed. Recombinant GST-tagged hDPP3 was diluted in assay buffer (25 ng/ml GST-DPP3 in 50 mM Tris-HCl, pH7,5 and 100 μM ZnCl2) and 200 μl of this solution incubated with 10 μg of the respective antibody at room temperature. After 1 hour of pre-incubation, fluorogenic substrate Arg-Arg-βNA (20 μl, 2 mM) was added to the solution and the generation of free βNA over time was monitored using the Twinkle LB 970 microplate fluorometer (Berthold Technologies GmbH & Co. KG) at 37° C. Fluorescence of βNA is detected by exciting at 340 nm and measuring emission at 410 nm. Slopes (in RFU/min) of increasing fluorescence of the different samples are calculated. The slope of GST-hDPP3 with buffer control is appointed as 100% activity. The inhibitory ability of a possible capture-binder is defined as the decrease of GST-hDPP3 activity by incubation with said capture-binder in percent.

[6] = tested on: Male Wistar rats; assay: CLP model of septic shock, sepsis-induced heart failure rats; assay type: in vivo, rat; details: vs CLP+PBS
Procedure: Male Wistar rats (2-3 months, 300 to 400 g, group size refers to table 9) from the Centre d'élevage Janvier (France) were allocated randomly to one of three groups. All the animals were anesthetized using ketamine hydrochloride (90 mg/kg) and xylazine (9 mg/kg) intraperitoneally (i.p.). For induction of polymicrobial sepsis, cecal ligation and puncture (CLP) was performed using Rittirsch's protocol with minor modification. A ventral midline incision (1.5 cm) was made to allow exteriorization of the cecum. The cecum is then ligated just below the ileocecal valve and punctured once with an 18-gauge needle. The abdominal cavity is then closed in two layers, followed by fluid resuscitation (3 ml/100 g body of weight of saline injected subcutaneously) and returning the animal to its cage. Sham animals were subjected to surgery, without getting their cecum punctured. CLP animals were randomized between placebo and therapeutic antibody.
The study flow is depicted in FIG. 8. After CLP or sham surgery the animals were allowed to rest for 20 hours with free access to water and food. […] As a safety measure, hemodynamics were monitored invasively and continuously from t=0 till 3 h. […]
Grey scale images were recorded at a depth of 2 cm. […] LVFS was calculated as LV end-diastolic diameter−LV end-systolic diameter/LV end-diastolic diameter and expressed in %. […] All parameters were measured manually. […]

[7] = tested on: patients with septic shock; assay: AdrenOSS-2 phase II trial in patients with septic shock and elevated adrenomedullin: mortality vs placebo; assay type: in vivo, human; details: for HR 28-day all-cause mortality: vs placebo
Procedure: AdrenOSS-2 is a double-blind, placebo-controlled, randomized, multicenter, proof of concept and dose-finding phase II clinical trial to investigate the safety, tolerability and efficacy of the N-terminal ADM antibody named Adrecizumab in patients with septic shock and elevated adrenomedullin (Geven et al. BMJ Open 2019; 9:e024475). In total, 301 patients with septic shock and bio-ADM concentration >[…] were randomized (2:1:1) to treatment with a single intravenous infusion over approximately 1 hour with either placebo (n=152), adrecizumab […]/kg (n=72) or adrecizumab […]/kg (n=77). All-cause mortality within 28 (90) days after inclusion was 25.8% (34.8%). Mean age was 68.4 years and 61% were male. For the per protocol analysis, n=294 patients remained eligible, and 14-day all-cause mortality rate was 18.5%.
To validate the findings from example 9 and for proof of concept, the different lower thresholds for DPP3 at baseline (day 1) were assessed for efficacy of the anti-ADM antibody (Adrecizumab) therapy in the septic shock population with high bio-ADM from the AdrenOSS-2 study cohort and patients with a DPP3 plasma value above the different lower thresholds were excluded from the analyses. Efficacy of the anti-ADM antibody therapy was specifically assessed to what concerns the mortality endpoint in the placebo and treated arms.
The DPP3 plasma levels in septic shock with high bio-ADM (above […]) patients (n=298) at baseline and in the following 144 h were statistically analysed with the aim of determining a DPP3 threshold at baseline to assess anti-ADM antibody therapy efficacy. Patients above the respective DPP3 plasma thresholds were excluded from the analyses. Different DPP3 plasma concentration thresholds have been applied for 28-day all-cause mortality evaluation using Kaplan-Meier plots comparing anti-ADM antibody therapy vs. placebo. The log-rank test was chosen for showing differences in mortality rates among treatment groups. Hazard ratios (HR) were calculated for each DPP3 plasma concentration threshold to estimate the reduction in mortality risk imposed by anti-ADM antibody therapy relative to placebo.

[8] = tested on: mice with CLP-induced sepsis; details: pre-treatment, cited from earlier work
[9] = phase I study; cited from earlier work
[10] = tested on: endotoxemic rats; details: pre-treatment; cited from earlier work
[11] = tested on: patients with septic shock; assay: AdrenOSS-2 phase II trial in patients with septic shock and elevated adrenomedullin: mortality vs placebo; assay type: in vivo, human

Substance: Clone 1967: anti-DPP3 monoclonal antibody, clone 1967 of SEQ ID No.: 37 (AK1967; Procizumab); humanized chains SEQ ID No. 47 and 48
- IC50 of DPP3 inhibition [1]: about 15 ng/ml
- hDPP3 binding [RLU] [2]: 113.736 RLU
- binding specificity in lysate of blood cells [3]: no other unspecific binding takes place
- heart function (shortening fraction) [4]: improved; also recorded: restores heart function
- Max. inhibition of hDPP3 [5]: 70%
- mortality rate [6]: drastically improves; also recorded: drastically reduces
- shortening fraction [6]: instant normalization; also recorded: drastically improves

Substance: Adrecizumab: humanized N-terminal anti-ADM antibody; heavy chain SEQ ID NO: 32, light chain SEQ ID NO: 33
- 28-day all-cause mortality compared to the placebo arm ([7]; DPP3 below 30 ng/ml (n=195)): significantly reduced
- 28-day all-cause mortality compared to the placebo arm ([7]; DPP3 below 50 ng/ml): lower than the placebo arm
- 28-day all-cause mortality compared to the placebo arm ([7]; DPP3 below 50 ng/ml at baseline and continuously low (<50 ng/ml) during the next 144 h): significantly lower
- HR 28-day all-cause mortality ([7]; baseline DPP3 threshold 22 ng/ml): 0.258
- HR 28-day all-cause mortality ([7]; baseline DPP3 threshold 30 ng/ml): 0.309
- HR 28-day all-cause mortality ([7]; baseline DPP3 threshold 40 ng/ml): 0.568
- 7-day survival ([8]; repeated dose administration, control 0%): 40%
- 7-day survival ([8]; single dose, control 10%): 50%
- renal vascular leakage [8]: attenuated
- serious adverse events [9]: no serious adverse events were observed
- renal vascular leakage [10]: attenuated
- HR 14-day mortality ([11]; DPP3 <50 ng/mL on admission): 0.426
- HR 14-day mortality ([11]; DPP3 <40): 0.385
- HR 14-day mortality ([11]; DPP3 <60): 0.449
- HR 14-day mortality ([11]; DPP3 <70): 0.546
- HR 14-day mortality ([11]; DPP3 >50 ng/mL): 1.69
- HR 14-day mortality ([11]; DPP3 >40): 1.35
- HR 14-day mortality ([11]; DPP3 >60): 1.62
- HR 14-day mortality ([11]; DPP3 >70): 1.24
- HR 28-day all-cause mortality ([11]; baseline DPP3 threshold 50 ng/ml): 0.606
